Laboratory results: patent US4505929A, “Sulfur-substituted diphenyl ethers having antiviral activity” (The Dow Chemical Company, priority 1982, dated 1985)
Values after ≈ are worked out from the molar mass of the structure shown.

Legend:
Format in all cases: cell-based
[1] = Cytotoxicity to HeLa cells in tissue culture testing; conditions: human, concentration found to be toxic to the cell, observed at 48 and 72 hours, read-out: Cytotoxicity
Protocol: (§1) Monolayered HeLa cells in 16 millimeter (mm) tissue culture dishes were treated with 1 ml of culture medium (Eagles medium supplemented with fetal calf serum) containing subject compound at an appropriate concentration or containing no compound at all. Culture media such as those described herein are more fully described in standard texts, as for example, Kuchler's Biochemical Methods in Cell Culture and Virology, Dowden, Hutchinson and Ross, Inc., Stroudsberg, PA (1977). Following treatment, cells were challenged with 0.05 ml of rhinovirus type 1A (RV-1A), rhinovirus type 2 (RV-2) or Coxsackie A21 virus (Cox A21) in culture medium. Some of the compounds were also tested against rhinovirus type 5 (RV-5), rhinovirus type 8 (RV-8) or rhinovirus type 64 (RV-64). Cell controls received no viruses.
^x Cytotoxicity figures represent the concentration of the compound,
micrograms/milliliter (μg/ml) found to be toxic to the cell.
means "approximately "; "<<" "considerably less than " and "G.I." means

[2] = test system: rhinovirus type 1A (RV-1A); assay: Tissue culture antiviral test (HeLa cells), RV-1A; conditions: Enterovirus, 48 and 72 hours post-treatment, read-out: Lowest concentration necessary to cause a 50 percent reduction in cytopathic effect, RV-1A
Protocol: as §1
(§2) ^xx Lowest concentration of the compound (μg/ml) necessary to caus
(§3) a 50 percent reduction in cytopathic effect.

rhinovirus type 2 (RV-2) = assay: Tissue culture antiviral test (HeLa cells), RV-2; conditions: Enterovirus, 48 and 72 hours post-treatment, read-out: Lowest concentration necessary to cause a 50 percent reduction in cytopathic effect, RV-2
Protocol: as §1, §2, §3

[3] = test system: Coxsackie A21 virus (Cox A21); assay: Tissue culture antiviral test (HeLa cells), Cox A21; conditions: 48 and 72 hours post-treatment, read-out: Lowest concentration necessary to cause a 50 percent reduction in cytopathic effect, Cox A21
Protocol: as §1, §2, §3

rhinovirus type 5 (RV-5) = assay: Tissue culture antiviral test (HeLa cells), RV-5; conditions: Enterovirus, 48 and 72 hours post-treatment, read-out: Lowest concentration necessary to cause a 50 percent reduction in cytopathic effect, RV-5
Protocol: as §1, §2, §3

rhinovirus type 8 (RV-8) = assay: Tissue culture antiviral test (HeLa cells), RV-8; conditions: Enterovirus, 48 and 72 hours post-treatment, read-out: Lowest concentration necessary to cause a 50 percent reduction in cytopathic effect, RV-8
Protocol: as §1, §2, §3

[4] = test system: rhinovirus type 64 (RV-64); assay: Tissue culture antiviral test (HeLa cells), RV-64; conditions: Enterovirus, 48 and 72 hours post-treatment, read-out: Lowest concentration necessary to cause a 50 percent reduction in cytopathic effect, RV-64
Protocol: as §1, §2, §3

Structure (SMILES) | EC50 [2] [µg/mL] | EC50 (rhinovirus type 2 (RV-2)) [µg/mL] | EC50 [3] [µg/mL] | EC50 (rhinovirus type 5 (RV-5)) [µg/mL] | EC50 (rhinovirus type 8 (RV-8)) [µg/mL] | EC50 [4] [µg/mL] | MCC [1] [µg/mL]
CC(=O)c1ccc(Oc2ccc(S(C)(=O)=O)cc2)cc1 [Example 3, 1-(4-(4-(Methylsulfonyl)phenoxy)phenyl)ethanone] | 25 (≈ 86.1 µM) | 12.5 (≈ 43.1 µM) | < 6.25 | 25 (≈ 86.1 µM) | 25 (≈ 86.1 µM) | < 6.25 | 50
CS(=O)(=O)c1ccc(Oc2ccc(C(=O)c3ccccc3)cc2)cc1 [Example 4, (4-(4-(Methylsulfonyl)phenoxy)phenyl)phenylmethanone] |  | 50 (≈ 142 µM) | < 6.25 |  |  | 100 (≈ 284 µM) | > 100
C[S+]([O-])c1ccc(Oc2ccc(Cl)c(Cl)c2)cc1 (stereo not drawn) [Example 6, 1,2-Dichloro-4-(4-(methylsulfinyl)phenoxy)benzene] | < 0.31 | < 0.31 |  |  |  | < 0.31 | 12.5
Cc1cc(Oc2ccc(Cl)c(Cl)c2)ccc1S(C)(=O)=O [Example 19, 4-(3-Methyl-4-(methylsulfonyl)phenoxy)-1,2-dichlorobenzene] | < 3.12 | 6.25 (≈ 18.9 µM) |  | 12.5 (≈ 37.7 µM) |  | < 3.12 | > 50
CS(=O)(=O)c1ccc(Oc2ccc(Cc3ccccc3)cc2)cc1 [Example 20, 1-(4-(Methylsulfonyl)phenoxy)-4-(phenylmethyl)benzene] | 2.5 (≈ 7.39 µM) | 1.25 (≈ 3.69 µM) | 2.5 (≈ 7.39 µM) | 5 (≈ 14.8 µM) | 5 (≈ 14.8 µM) | 2.5 (≈ 7.39 µM) | 5
CCN(CC)CCOc1ccc(Oc2ccc(S(C)(=O)=O)cc2)cc1 [Example 24] | 1.25 (≈ 3.44 µM) |  |  | 2.5 (≈ 6.88 µM) |  |  | ≤ 20
C[S+]([O-])c1ccc(Oc2ccc([N+](=O)[O-])cc2)cc1 (stereo not drawn) [Example 29, 1-(Methylsulfinyl)-4-(4-nitrophenoxy)benzene] | ≤ 6.25 | ≤ 6.25 | < 6.25 |  |  |  | 25
CS(=O)(=O)c1ccc(Oc2ccc([N+](=O)[O-])cc2[N+](=O)[O-])cc1 [Example 31, 1-(4-(Methylsulfonyl)phenoxy)-2,4-dinitrobenzene] | ~12.5 (≈ 36.9 µM) | ~12.5 (≈ 36.9 µM) | ≤ 6.25 |  |  |  | 25

Now from value to molecule, other results behind:

EC50 [2] [µg/mL] | EC50 (rhinovirus type 2 (RV-2)) [µg/mL] | EC50 [3] [µg/mL] | EC50 (rhinovirus type 5 (RV-5)) [µg/mL] | EC50 (rhinovirus type 8 (RV-8)) [µg/mL] | EC50 [4] [µg/mL] | Structure (SMILES) | MCC [1] [µg/mL]
12.5 (≈ 45.7 µM) | 12.5 (≈ 45.7 µM) | < 6.25 | 12.5 (≈ 45.7 µM) | 25 (≈ 91.5 µM) | 12.5 (≈ 45.7 µM) | CS(=O)(=O)c1ccc(Oc2ccc(C#N)cc2)cc1 [Example 8, 4-(4-(Methylsulfonyl)phenoxy)benzonitrile] | 50
< 3.12 | < 3.12 | < 3.12 | 12.5 (≈ 38.2 µM) | 12.5 (≈ 38.2 µM) |  | CS(=O)(=O)c1ccc(Oc2ccc(Br)cc2)cc1 [Example 9, 1-Bromo-4-(4-(methylsulfonyl)phenoxy)benzene] | 12.5
6.25 (≈ 22.5 µM) | 12.5 (≈ 44.9 µM) | 25 (≈ 89.8 µM) |  |  | 12.5 (≈ 44.9 µM) | COc1ccc(Oc2ccc(S(C)(=O)=O)cc2)cc1 [Example 18, 4-(4-(Methylsulfonyl)phenoxy)-1-methoxybenzene] | > 50
2.5 (≈ 6.29 µM) | 1.25 (≈ 3.15 µM) | 0.625 (≈ 1.57 µM) | ~1.25 (≈ 3.15 µM) |  |  | CS(=O)(=O)c1ccc(Oc2ccc(OC(F)(F)C(Cl)Cl)cc2)cc1 [Example 22, 1-(2,2-Dichloro-1,1-difluoroethoxy)-4-(4-(methylsulfonyl)phenoxy)benzene] | 2.5
2.5 (≈ 8.24 µM) | 5 (≈ 16.5 µM) | 2.5 (≈ 8.24 µM) | 5 (≈ 16.5 µM) | 5 (≈ 16.5 µM) | 10 (≈ 33 µM) | CS(=O)(=O)c1ccc(Oc2ccc(OCC#N)cc2)cc1 [Example 23, (4-(4-(Methylsulfonyl)phenoxy)phenoxy)acetonitrile] | 10
12.5 (≈ 42.6 µM) | ≤ 6.25 | < 6.25 |  |  |  | CS(=O)(=O)c1ccc(Oc2ccc([N+](=O)[O-])cc2)cc1 [Example 32, 1-(Methylsulfonyl)-4-(4-nitrophenoxy)benzene] | 50
